Laboratory results taken from ChEMBL document CHEMBL1201862, “PubChem BioAssay data set” (2004).
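48-hour exposure; five concentrations; linearly interpolated endpoints. At the GI50, growth is halved.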 The source made the active and inactive calls. Rule as the data show it: active = GI50 up to about 1.1 µM and inactive = higher.

What was measured:
Assay in all cases: growth of human tumour cells (NCI), 48 h
SR = test system: SR
RPMI-8226 = test system: RPMI-8226
SF-268 = test system: SF-268
SNB-75 = test system: SNB-75
ACHN = test system: ACHN
OVCAR-5 = test system: OVCAR-5
DMS-114 = test system: DMS-114
NCI-H23 = test system: NCI-H23
UO-31 = test system: UO-31
HL-60 = test system: HL-60
SK-MEL-5 = test system: SK-MEL-5
HOP-92 = test system: HOP-92
SF-539 = test system: SF-539
SNB-19 = test system: SNB-19
OVCAR-8 = test system: OVCAR-8
DMS-273 = test system: DMS-273
OVCAR-3 = test system: OVCAR-3
DLD-1 = test system: DLD-1
SK-MEL-2 = test system: SK-MEL-2
LOX IMVI = test system: LOX IMVI
TK-10 = test system: TK-10
M14 = test system: M14
HT-29 = test system: HT-29
Malme-3M = test system: Malme-3M
KM12 = test system: KM12
EKVX = test system: EKVX
HCT-15 = test system: HCT-15
COLO 205 = test system: COLO 205
IGROV-1 = test system: IGROV-1
A549 = test system: A549
UACC-257 = test system: UACC-257
U-251 = test system: U-251
786-0 = test system: 786-0
K562 = test system: K562
HCT-116 = test system: HCT-116
KM-20L2 = test system: KM-20L2
NCI-H522 = test system: NCI-H522
OVCAR-4 = test system: OVCAR-4
SK-MEL-28 = test system: SK-MEL-28
NCI-H460 = test system: NCI-H460
NCI-H226 = test system: NCI-H226
LXFL 529 = test system: LXFL 529
CCRF-CEM = test system: CCRF-CEM
SF-295 = test system: SF-295
M19-MEL = test system: M19-MEL
SW-620 = test system: SW-620
SNB-78 = test system: SNB-78
HCC 2998 = test system: HCC 2998
CAKI-1 = test system: CAKI-1
SN12C = test system: SN12C
UACC-62 = test system: UACC-62
MOLT-4 = test system: MOLT-4
HOP-18 = test system: HOP-18
SK-OV-3 = test system: SK-OV-3
HOP-62 = test system: HOP-62
A498 = test system: A498
RXF 393 = test system: RXF 393

## COc1ccc(-c2cn3ccsc3n2)cc1
SR
  GI50: 15.9 µM (inactive)
RPMI-8226
  GI50: 22.3 µM (inactive)
SF-268
  GI50: > 100 µM (inactive)
SNB-75
  GI50: > 100 µM (inactive)
ACHN
  GI50: > 100 µM (inactive)
OVCAR-5
  GI50: > 100 µM (inactive)
DMS-114
  GI50: 47.8 µM (inactive)
NCI-H23
  GI50: > 100 µM (inactive)
UO-31
  GI50: > 100 µM (inactive)
HL-60
  GI50: 24.7 µM (inactive)
SK-MEL-5
  GI50: > 100 µM (inactive)
HOP-92
  GI50: > 100 µM (inactive)
SF-539
  GI50: 75.9 µM (inactive)
SNB-19
  GI50: > 100 µM (inactive)
OVCAR-8
  GI50: > 100 µM (inactive)
DMS-273
  GI50: > 100 µM (inactive)
OVCAR-3
  GI50: > 100 µM (inactive)
DLD-1
  GI50: > 100 µM (inactive)
SK-MEL-2
  GI50: > 100 µM (inactive)
LOX IMVI
  GI50: 36.2 µM (inactive)
TK-10
  GI50: > 100 µM (inactive)
M14
  GI50: > 100 µM (inactive)
HT-29
  GI50: 82.8 µM (inactive)
Malme-3M
  GI50: > 100 µM (inactive)
KM12
  GI50: > 100 µM (inactive)
EKVX
  GI50: > 100 µM (inactive)
HCT-15
  GI50: 39.6 µM
COLO 205
  GI50: 33.1 µM (inactive)
IGROV-1
  GI50: > 100 µM (inactive)
A549
  GI50: > 100 µM (inactive)
UACC-257
  GI50: > 100 µM (inactive)
U-251
  GI50: 75.2 µM (inactive)
786-0
  GI50: 35.6 µM (inactive)
K562
  GI50: 55.2 µM (inactive)
HCT-116
  GI50: 45.4 µM (inactive)
KM-20L2
  GI50: 57.8 µM (inactive)
NCI-H522
  GI50: 65.3 µM (inactive)
OVCAR-4
  GI50: > 100 µM (inactive)
SK-MEL-28
  GI50: > 100 µM (inactive)
NCI-H460
  GI50: 87.7 µM (inactive)
NCI-H226
  GI50: > 100 µM (inactive)
LXFL 529
  GI50: > 100 µM (inactive)
CCRF-CEM
  GI50: 64 µM (inactive)
SF-295
  GI50: > 100 µM (inactive)
M19-MEL
  GI50: > 100 µM (inactive)
SW-620
  GI50: 11.2 µM (inactive)
SNB-78
  GI50: > 100 µM (inactive)
HCC 2998
  GI50: > 100 µM (inactive)
CAKI-1
  GI50: > 100 µM (inactive)
SN12C
  GI50: > 100 µM (inactive)
UACC-62
  GI50: > 100 µM (inactive)
MOLT-4
  GI50: 97.7 µM (inactive)
HOP-18
  GI50: > 100 µM (inactive)
SK-OV-3
  GI50: > 100 µM (inactive)
HOP-62
  GI50: > 100 µM (inactive)

## NC(=O)C#CC#CC#CCO
SR
  GI50: 2.47 µM (inactive)
RPMI-8226
  GI50: 2.05 µM (inactive)
SF-268
  GI50: 2.21 µM (inactive)
SNB-75
  GI50: 1.82 µM (inactive)
ACHN
  GI50: 1.34 µM (inactive)
OVCAR-5
  GI50: 18.9 µM (inactive)
DMS-114
  GI50: 2.05 µM (inactive)
NCI-H23
  GI50: 2.12 µM (inactive)
UO-31
  GI50: 1.95 µM (inactive)
HL-60
  GI50: 1.26 µM (inactive)
SK-MEL-5
  GI50: 1.98 µM (inactive)
HOP-92
  GI50: 2.28 µM (inactive)
SNB-19
  GI50: 14.9 µM (inactive)
OVCAR-8
  GI50: 1.81 µM (inactive)
DMS-273
  GI50: 1.98 µM (inactive)
OVCAR-3
  GI50: 1.9 µM (inactive)
DLD-1
  GI50: 0.807 µM (active)
SK-MEL-2
  GI50: 2.2 µM (inactive)
LOX IMVI
  GI50: 2.09 µM (inactive)
TK-10
  GI50: 1.61 µM (inactive)
A498
  GI50: 4.4 µM (inactive)
M14
  GI50: 1.98 µM (inactive)
HT-29
  GI50: 2.39 µM (inactive)
Malme-3M
  GI50: 1.96 µM (inactive)
KM12
  GI50: 3.31 µM (inactive)
EKVX
  GI50: 1.68 µM (inactive)
HCT-15
  GI50: 1.8 µM
COLO 205
  GI50: 1.23 µM (inactive)
IGROV-1
  GI50: 2.72 µM (inactive)
A549
  GI50: 4.39 µM (inactive)
UACC-257
  GI50: 2.33 µM (inactive)
U-251
  GI50: 2 µM (inactive)
786-0
  GI50: 1.59 µM (inactive)
K562
  GI50: 2.04 µM (inactive)
RXF 393
  GI50: 2.09 µM (inactive)
HCT-116
  GI50: 1.28 µM (inactive)
KM-20L2
  GI50: 3.89 µM (inactive)
NCI-H522
  GI50: 0.15 µM (active)
OVCAR-4
  GI50: 1.83 µM (inactive)
SK-MEL-28
  GI50: 2.14 µM (inactive)
NCI-H460
  GI50: 5.96 µM (inactive)
NCI-H226
  GI50: 11.6 µM (inactive)
LXFL 529
  GI50: 1.14 µM (inactive)
CCRF-CEM
  GI50: 0.843 µM (active)
SF-295
  GI50: 3.94 µM (inactive)
M19-MEL
  GI50: 1.81 µM (inactive)
SW-620
  GI50: 1.51 µM (inactive)
SNB-78
  GI50: 2.86 µM (inactive)
HCC 2998
  GI50: 1.7 µM (inactive)
CAKI-1
  GI50: 1.92 µM (inactive)
SN12C
  GI50: 1.96 µM (inactive)
UACC-62
  GI50: 1.92 µM (inactive)
MOLT-4
  GI50: 0.998 µM (active)
HOP-18
  GI50: 1.82 µM (inactive)
SK-OV-3
  GI50: 12.8 µM (inactive)
HOP-62
  GI50: 10.9 µM (inactive)
